Like-named read-outs stand apart in the source and are kept apart here.

This note sets out measurements from US10442804B2, “Compounds for the treatment of hepatitis B virus infection” (Gilead Sciences, Inc., priority 2017, dated 2019).

The test system of series [1] is HBV-infected NTCP-HepG2 cells, secreted HBsAg. In words: microbe, parasite or virus in culture. The series is classed as cell-based, hepatitis B virus (genotype D, AD38-derived). Particulars: read-out: NTCP HBsAg EC50. On the procedure: NTCP-HepG2 Antiviral Assay for Secreted HBsAg
HepG2 cells stably expressing sodium-taurocholate cotransporting polypeptide (NTCP-HepG2) were grown in Dulbecco's Modified Eagle Medium (DMEM) without sodium pyruvate (Thermo Fisher Scientific, Waltham, Mass.) supplemented with 10% fetal bovine serum, 2 mM L-glutamine, 1% penicillin/streptomycin, and 0.25 mg/mL G-418. NTCP-HepG2 cells were infected with 4000 genome equivalent per cell of genotype D (AD38-derived) HBV in DMEM without sodium pyruvate (Thermo Fisher Scientific, Waltham, Mass.) supplemented with 2% fetal bovine serum, 2 mM L-glutamine, 1% penicillin/streptomycin, 2.5% DMSO, and 4% PEG 8000 (Promega, Madison, Wis.). After 24-hour incubation, cells were washed three times with OptiMEM (Thermo Fisher Scientific, Waltham, Mass.) and fed with fresh DMEM without sodium pyruvate (Thermo Fisher Scientific, Waltham, Mass.) supplemented with 2% fetal bovine serum, 2 mM L-glutamine, 1% penicillin/streptomycin, and 2.5% DMSO. At 4 days after infection, infected NTCP-HepG2 cells were seeded on 384-well plates pre-coated with collagen at a density of 20000 cells per well containing serially diluted compounds of the present disclosure or DMSO (0.5%) in a final volume of 80 μl of DMEM without sodium pyruvate (Thermo Fisher Scientific, Waltham, Mass.) supplemented with 2% fetal bovine serum, 2 mM L-glutamine, 1% penicillin/streptomycin, and 1% DMSO. After an incubation time of 5 days, cell culture supernatant was collected and measured for HBsAg.
Secreted HBsAg in the supernatant were measured using a multiplex chemiluminescent MSD assay (Meso Scale Discovery, Rockville, Md.) using capture and detection antibody pairs specific for HBsAg. The EC50 values were calculated from the fit of the dose-response curves to a four-parameter equation. All EC50 values represent geometric mean values of a minimum of four determinations.

A short description of the next series: MT-4 cytotoxicity assay. The series is classed as cell-based, human. Particulars: human. On the procedure: Biological Example 2: MT-4 Cytotoxicity Assay
The MT-4 cell line (HTLV-1 transformed, human T lymphoblastoid cells) was obtained from the NIH AIDS Reagent program (Bethesda, Md.). MT-4 cells were maintained in RPMI-1640 media (Thermo Fisher Scientific, Waltham, Mass.) supplemented with 10% fetal bovine serum, 100 Units/mL penicillin, and 100 μg/mL streptomycin. For the MT-4 cytotoxicity assay, 0.4 μL of serially diluted solutions of certain compounds disclosed herein were added to 40 μL of cell maintenance media in 384-well black, solid bottom plate using a Biomek FX workstation (Beckman Coulter, Brea, Calif.). Two thousand cells in 35 μL were added to each well using a Biotek uFlow Workstation (Biotek, Winooski, Vt.). Each assay plate contained 10 μM puromycin (final concentration) and 0.5% DMSO in RPMI-1640 media as positive and negative controls, respectively. Assay plates were incubated for five days at 37° C. in an incubator set at 5% CO2 and 90% humidity. After five days, 22 μL of Cell Titer Glo reagent (Promega, Madison, Wis.) was added to the assay plates with a Biotek uFlow Workstation. Plates were subsequently placed on an Envision Plate Reader (Perkin Elmer, Waltham, Mass.) for five minutes before the luminescence signal was read. CC50 values were defined as the compound concentration that caused a 50% decrease in luminescence signal, and were calculated by non-linear regression using Pipeline Pilot software by applying a four parameter fit equation (Accelrys, San Diego, Calif.) and are reported in the following Table 1.

Setting [2] is: Hepatitis B virus, 120 h, secreted HBsAg in supernatant after 5 days, geometric mean of minimum four determinations.
Setting [3] is: five days, Cell Titer Glo luminescence, read-out: MT-4 CC50.

A word on the EC50: it is the concentration needed to bring the measured effect to its halfway point. By CC50 is commonly meant the concentration at which the toxic effect on the cells reaches its halfway point. For `COCCCOc1cc2c(cc1Cl)-c1cc(=O)c(C(=O)O)cn1N1CC(C)(C)C[C@H]21` (single isomer, unassigned) [Example 29], in series [1] (setting [2]), the concentration for a half-maximal effect (EC50) came to 14 nM. For the same compound, in “MT-4 cytotoxicity assay” (setting [3]), the CC50 at 5 days is above 10000 nM.

Consider `COCCCOc1cc2c(cc1OC(F)(F)F)-c1cc(=O)c(C(=O)O)cn1N1[C@@H]2CCC1(C)C` [Example 79, (R)-12-(3-methoxypropoxy)-3,3-dimethyl-8-oxo-11-(trifluoromethoxy)-2,3,8,13b-tetrahydro-1H-pyrido[2,1-a]pyrrolo[1,2-c]phthalazine-7-carboxylic acid], for which the concentration for a half-maximal effect (EC50) in series [1] (setting [2]) stood at 1.1 nM. The CC50 at 5 days in the series “MT-4 cytotoxicity assay” (setting [3]) is above 10000 nM.

Turning to `COc1cc2c(cc1OCCCOCC(F)(F)F)[C@H]1CCC(C)(C)N1n1cc(C(=O)O)c(=O)cc1-2` [Example 60, (R)-11-methoxy-3,3-dimethyl-8-oxo-12-(3-(2,2,2-trifluoroethoxy)propoxy)-2,3,8,13b-tetrahydro-1H-pyrido[2,1-a]pyrrolo[1,2-c]phthalazine-7-carboxylic acid], the EC50 in series [1] (setting [2]) worked out at 1.2 nM. Moreover, in “MT-4 cytotoxicity assay” (setting [3]), the CC50 at 5 days was above 10000 nM.

Turning to `COCCCOc1cc2c(cc1C1CC1)-c1cc(=O)c(C(=O)O)cn1N1[C@@H]2CCC1(C)C` [Example 28, (R)-11-cyclopropyl-12-(3-methoxypropoxy)-3,3-dimethyl-8-oxo-2,3,8,13b-tetrahydro-1H-pyrido[2,1-a]pyrrolo[1,2-c]phthalazine-7-carboxylic acid], in series [1] (setting [2]), the concentration for a half-maximal effect (EC50) is 0.78 nM. Besides, the half-maximal cytotoxic concentration (CC50) at 5 days in the series “MT-4 cytotoxicity assay” (setting [3]) turned out to be 8700 nM.

For the compound `COCCOCc1cc2c(cc1OC)-c1cc(=O)c(C(=O)O)cn1N1[C@@H]2CCC1(C)C` [Example 78, (R)-11-methoxy-12-((2-methoxyethoxy)methyl)-3,3-dimethyl-8-oxo-2,3,8,13b-tetrahydro-1H-pyrido[2,1-a]pyrrolo[1,2-c]phthalazine-7-carboxylic acid], the EC50 in series [1] (setting [2]) was 70 nM. Also, the CC50 at 5 days in the series “MT-4 cytotoxicity assay” (setting [3]) was above 10000 nM.

On to `COCCCOc1cc2c(cc1OC)-c1cc(=O)c(C(=O)O)cn1N1[C@H]2CCCC1(C)C` (single isomer, unassigned) [Example 53], for which the EC50 in series [1] (setting [2]) amounted to 9.1 nM. Besides, in “MT-4 cytotoxicity assay” (setting [3]), the half-maximal cytotoxic concentration (CC50) at 5 days came to 9700 nM.

As to `COCCCOc1cc2c(cc1Cl)-c1cc(=O)c(C(=O)O)cn1[C@H]1[C@H]2CCC1(C)C` (racemic) [Example 31, trans-10-Chloro-11-(3-methoxypropoxy)-3,3-dimethyl-7-oxo-1,2,3,3a,7,12b-hexahydrocyclopenta[c]pyrido[2,1-a]isoquinoline-6-carboxylic acid], in series [1] (secreted HBsAg in supernatant after 5 days, geometric mean of minimum four determinations), the EC50 turned out to be 6.4 nM. Moreover, in the series “MT-4 cytotoxicity assay” (setting [3]), the half-maximal cytotoxic concentration (CC50) at 5 days is above 10000 nM.

Turning to `CC1(C)CC[C@@H]2c3cc(OCc4ccccc4)c(OC(F)(F)F)cc3-c3cc(=O)c(C(=O)O)cn3N21` [Example 75, (R)-12-(benzyloxy)-3,3-dimethyl-8-oxo-11-(trifluoromethoxy)-2,3,8,13b-tetrahydro-1H-pyrido[2,1-a]pyrrolo[1,2-c]phthalazine-7-carboxylic acid], the half-maximal effective concentration (EC50) in series [1] (Hepatitis B virus, 120 h) came to 6.1 nM. Further, in the series “MT-4 cytotoxicity assay” (setting [3]), the cytotoxic concentration (CC50) at 5 days was 5000 nM.

Take `COCCCOc1cc2c(cc1OC)-c1cc(=O)c(C(=O)O)cn1N1[C@@H]2CCC1(C)C` [Example 14, (R)-11-methoxy-12-(3-methoxypropoxy)-3,3-dimethyl-8-oxo-2,3,8,13b-tetrahydro-1H-pyrido[2,1-a]pyrrolo[1,2-c]phthalazine-7-carboxylic acid]: the EC50 in series [1] (setting [2]) came out at 2.1 nM. Further, the CC50 at 5 days in “MT-4 cytotoxicity assay” (setting [3]) is above 10000 nM.

Regarding `COCCCOc1cc2c(cc1COC)-c1cc(=O)c(C(=O)O)cn1N1[C@@H]2CCC12CCC2` [Compound 110, (R)-11′-(methoxymethyl)-12′-(3-methoxypropoxy)-8′-oxo-1′,2′,8′,13b′-tetrahydrospiro[cyclobutane-1,3′-pyrido[2,1-a]pyrrolo[1,2-c]phthalazine]-7′-carboxylic acid], the EC50 in series [1] (setting [2]) came to 3.9 nM. Further, the cytotoxic concentration (CC50) at 5 days in the series “MT-4 cytotoxicity assay” (MT-4 CC50) is above 10000 nM.

For the compound `COCCCOc1cc2c(cc1Cl)-c1cc(=O)c(C(=O)O)cn1N1CCC[C@H]21` (single isomer, unassigned) [Example 2], the concentration for a half-maximal effect (EC50) in series [1] (setting [2]) worked out at 110 nM. In the series “MT-4 cytotoxicity assay” (setting [3]), the CC50 at 5 days is 3900 nM.

`COCc1cc2c(cc1OCC13CC(C#N)(C1)C3)[C@H]1CCC3(CC3)N1n1cc(C(=O)O)c(=O)cc1-2` [Compound 107, (R)-12′-((3-cyanobicyclo[1.1.1]pentan-1-yl)methoxy)-11′-(methoxymethyl)-8′-oxo-1′,2′,8′,13b′-tetrahydrospiro[cyclopropane-1,3′-pyrido[2,1-a]pyrrolo[1,2-c]phthalazine]-7′-carboxylic acid]: in series [1] (setting [2]), the concentration for a half-maximal effect (EC50) stood at 5.9 nM. The CC50 at 5 days in the series “MT-4 cytotoxicity assay” (MT-4 CC50) was 7800 nM.

Turning to `CC1(C)CC[C@@H]2c3cc(-c4cnn(C(F)F)c4)c(Cl)cc3-c3cc(=O)c(C(=O)O)cn3N21` [Example 76, (R)-11-chloro-12-(1-(difluoromethyl)-1H-pyrazol-4-yl)-3,3-dimethyl-8-oxo-2,3,8,13b-tetrahydro-1H-pyrido[2,1-a]pyrrolo[1,2-c]phthalazine-7-carboxylic acid], the EC50 in series [1] (setting [2]) came to 6.3 nM. For the same compound, in the series “MT-4 cytotoxicity assay” (setting [3]), the CC50 at 5 days came to 4400 nM.

Turning to `CC(C)(O)C#Cc1cc2c(cc1C1CC1)-c1cc(=O)c(C(=O)O)cn1N1[C@@H]2CCC1(C)C` [Example 71, (R)-11-cyclopropyl-12-(3-hydroxy-3-methylbut-1-yn-1-yl)-3,3-dimethyl-8-oxo-2,3,8,13b-tetrahydro-1H-pyrido[2,1-a]pyrrolo[1,2-c]phthalazine-7-carboxylic acid], the EC50 in series [1] (setting [2]) worked out at 2.5 nM. In “MT-4 cytotoxicity assay” (setting [3]), the cytotoxic concentration (CC50) at 5 days was above 10000 nM.

For the compound `COCCOCc1cc2c(cc1OC(F)F)-c1cc(=O)c(C(=O)O)cn1N1[C@@H]2CCC1(C)C` [Compound 108, (R)-11-(difluoromethoxy)-12-((2-methoxyethoxy)methyl)-3,3-dimethyl-8-oxo-2,3,8,13b-tetrahydro-1H-pyrido[2,1-a]pyrrolo[1,2-c]phthalazine-7-carboxylic acid], the EC50 in series [1] (setting [2]) is 16.8 nM. The CC50 at 5 days in the series “MT-4 cytotoxicity assay” (setting [3]) was above 10000 nM.

For the compound `COCCCOc1cc2c(cc1Cl)-c1cc(=O)c(C(=O)O)cn1N1[C@@H]2COCC1(C)C` (single isomer, unassigned) [Example 51], the concentration for a half-maximal effect (EC50) in series [1] (setting [2]) is 2.9 nM. Besides, the CC50 at 5 days in the series “MT-4 cytotoxicity assay” (setting [3]) is above 10000 nM.

Regarding `COCCCOc1cc2c(cc1OCCCOC)[C@@H]1CCC(C)(C)N1n1cc(C(=O)O)c(=O)cc1-2` [Example 24, (S)-11,12-bis(3-methoxypropoxy)-3,3-dimethyl-8-oxo-2,3,8,13b-tetrahydro-1H-pyrido[2,1-a]pyrrolo[1,2-c]phthalazine-7-carboxylic acid], the EC50 in series [1] (setting [2]) is above 1000 nM. Moreover, the 50% cytotoxic concentration (CC50) at 5 days in the series “MT-4 cytotoxicity assay” (setting [3]) was above 10000 nM.

For `COCCCOc1cc2c(cc1OCCCOC)[C@H]1CCC(C)(C)N1n1cc(C(=O)O)c(=O)cc1-2` [Example 23, (R)-11,12-bis(3-methoxypropoxy)-3,3-dimethyl-8-oxo-2,3,8,13b-tetrahydro-1H-pyrido[2,1-a]pyrrolo[1,2-c]phthalazine-7-carboxylic acid], the EC50 in series [1] (setting [2]) was determined as 53 nM. In addition, the cytotoxic concentration (CC50) at 5 days in “MT-4 cytotoxicity assay” (setting [3]) is above 10000 nM.

Turning to `COCCCOc1cc2c(cc1OC(F)F)-c1cc(=O)c(C(=O)O)cn1N1[C@@H]2CCC1(C)C` (single isomer, unassigned) [Example 19], in series [1] (setting [2]), the 50% effective concentration (EC50) was determined as 1.2 nM. The CC50 at 5 days in the series “MT-4 cytotoxicity assay” (setting [3]) was above 10000 nM.

Consider `COCCCOc1cc2c(cc1Cl)-c1cc(=O)c(C(=O)O)cn1N1[C@@H]2CC1(C)C` [Example 46, (R)-10-chloro-11-(3-methoxypropoxy)-2,2-dimethyl-7-oxo-1,2,7,12b-tetrahydroazeto[2,1-a]pyrido[1,2-c]phthalazine-6-carboxylic acid and (S)-10-chloro-1-(3-methoxypropoxy)-2,2-dimethyl-7-oxo-1,2,7,12b-tetrahydroazeto[2,1-a]pyrido[1,2-c]phthalazine-6-carboxylic acid], for which the EC50 in series [1] (setting [2]) turned out to be 7.8 nM. Also, the half-maximal cytotoxic concentration (CC50) at 5 days in the series “MT-4 cytotoxicity assay” (setting [3]) is above 10000 nM.
